Experimental data taken from publication PMC9612054, “Experimental and Computational Analysis of Newly Synthesized Benzotriazinone Sulfonamides as Alpha-Glucosidase Inhibitors” (Molecules, 2022).

Columns and labels:
[1] = Solubility (physiochemical properties); format: physicochemical; conditions: solvents in which the compound is soluble
[2] = target: T1, alpha-Glucosidase (Cat No. 5003-1KU Type I) (Saccharomyces cerevisiae, UniProt P53341); assay: biochemical; conditions: for inhibition at 500 µM: pH 6.8, read-out: % Inhibition at 0.5 mM
T1 construct: purchased 5003-1KU Type I
Experimental: It actively works in the intestinal tract by inhibiting alpha-glucosidase, which is responsible for the conversion of complex carbohydrates to absorbable glucose. […] Therefore, an alpha-glucosidase inhibition assay of newly synthesized amino benzotriazinones 11a–11b and their corresponding sulfonamides 12a–12f was carried out by spectrophotometric method.
Alpha-glucosidase inhibition activity was carried out by the Pierre et al. method with slight modifications, and alpha-Glucosidase (Cat No. 5003-1KU Type I) from Saccharomyces cereviciae was utilized for the experimental protocol due to its resemblances to the structure and function of yeast/mammalian enzyme. For test, saline phosphate buffer (70 μL, 50 mM with pH 6.8), alpha-glucosidase enzyme (10 μL, 0.0234 units) and test compound (10 μL, 0.5 mM) were taken in test tubes and incubated for 10 min at 37 °C. Absorbance of these prepared samples was recorded at 400 nm. 10 μL p-nitrophenyl-alpha-D-glucopyranoside (0.5 mM, ‘substrate’, code No. N1377 from Sigma) was used to initiate the reaction and test tubes were allowed to stand for 30 min. Then, the variation in concentration of free substrate was noted by the change in absorbance. The enzyme percentage inhibition was estimated by the following formula and IC50 values were calculated by ‘EZ-Fit enzyme kinetics software. % Inhibition = [([…])/Abs. of control] × 100

alpha-glucosidase = target: alpha-glucosidase; parameters: method as in doi:10.1007/s00044-022-02883-1; conditions: earlier series; cited from earlier work

T1 sequence (P53341 whole entry): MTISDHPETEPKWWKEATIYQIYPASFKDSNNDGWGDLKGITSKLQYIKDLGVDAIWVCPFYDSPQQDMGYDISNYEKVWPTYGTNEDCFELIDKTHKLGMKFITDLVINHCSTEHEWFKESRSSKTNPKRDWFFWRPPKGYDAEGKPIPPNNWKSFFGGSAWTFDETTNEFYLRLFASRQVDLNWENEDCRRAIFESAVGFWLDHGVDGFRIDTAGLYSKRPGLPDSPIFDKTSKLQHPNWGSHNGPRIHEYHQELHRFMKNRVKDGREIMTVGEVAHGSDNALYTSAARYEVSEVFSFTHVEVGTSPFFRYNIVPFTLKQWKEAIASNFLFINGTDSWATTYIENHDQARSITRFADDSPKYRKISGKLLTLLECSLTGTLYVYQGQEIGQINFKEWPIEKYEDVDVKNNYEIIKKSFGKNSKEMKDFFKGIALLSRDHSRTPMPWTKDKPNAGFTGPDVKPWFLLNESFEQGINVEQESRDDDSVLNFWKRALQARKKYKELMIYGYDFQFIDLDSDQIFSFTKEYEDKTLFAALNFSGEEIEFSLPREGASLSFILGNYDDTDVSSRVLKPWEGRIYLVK

Compound	Solubility [1]	melting point [°C]	% Inhibition at 0.5 mM ([2]; test compound 0.5 mM, pH 6.8, 37 °C) [%]	inhibition at 500 µM [2] [%]	IC50 [2] [µM]	IC50 (alpha-glucosidase) [µM]
CCCNC(=O)c1cc([N+](=O)[O-])ccc1N [Compound 9a, 2-Amino-5-nitro-N-propylbenzamide]	Ethanol, DMSO	195 to 197				
Isatoic Anhydride [Compound 7]	Ethanol, DMSO					
C[C@H]1O[C@H](O[C@H]2[C@H](O)[C@@H](O)[C@@H](O[C@H]3[C@H](O)[C@@H](O)C(O)O[C@@H]3CO)O[C@@H]2CO)[C@H](O)[C@@H](O)[C@@H]1N[C@H]1C=C(CO)[C@@H](O)[C@H](O)[C@H]1O (stereo partly shown) [acarbose, reference compound]			92.23 ± 0.16			
CCCCn1nnc2ccc(N)cc2c1=O [Compound 11b, 6-Amino-3-butylbenzo[1,2,3]triazin-4(3H)-one]	Methanol, DMSO	191 to 192		27.12 ± 0.13		
CCCCNC(=O)c1cc([N+](=O)[O-])ccc1N [Compound 9b, 2-Amino-5-nitro-N-butylbenzamide]	Ethanol, DMSO	197 to 199				
6-Nitroisatoic Anhydride [Compound 8]	Ethanol, DMSO					
CCCn1nnc2ccc(NS(=O)(=O)c3ccc(OC)cc3)cc2c1=O [Compound 12b, 4-Methoxy-N-(4-oxo-3-propyl-3,4-dihydrobenzo[1,2,3]triazin-6-yl)benzenesulfonmide]	Ethanol, DMSO	175 to 177		91.73 ± 0.17	39.21 ± 0.12	
CCCn1nnc2ccc([N+](=O)[O-])cc2c1=O [Compound 10a, 6-Nitro-3-propylbenzo[1,2,3]triazin-4(3H)-one]	Ethanol, DMSO	215 to 217				
CCCCn1nnc2ccc([N+](=O)[O-])cc2c1=O [Compound 10b, 6-Nitro-3-butylbenzo[1,2,3]triazin-4(3H)-one]	Ethanol, DMSO	217 to 218				
CCCn1nnc2ccc(N)cc2c1=O [Compound 11a, 6-Amino-3-propylbenzo[1,2,3]triazin-4(3H)-one]	Methanol, DMSO	185 to 186		26.12 ± 0.13		
CCCn1nnc2ccc(NS(=O)(=O)c3ccccc3)cc2c1=O [Compound 12a, N-(4-Oxo-3-propyl-3,4-dihydrobenzo[1,2,3]triazin-6-yl)benzenesulfonamide]	Ethanol, DMSO	171 to 173		51.25 ± 0.16		
CCCn1nnc2ccc(NS(=O)(=O)c3ccc(Br)cc3)cc2c1=O [Compound 12d, 4-Bromo-N-(4-oxo-3-propyl-3,4-dihydrobenzo[1,2,3]triazin-6-yl)benzenesulfonamide]	Ethanol, DMSO			79.42 ± 0.15	55.21 ± 0.12	
CCCn1nnc2ccc(NS(=O)(=O)c3ccc([N+](=O)[O-])cc3)cc2c1=O [Compound 12e, 4-Nitro-N-(4-oxo-3-propyl-3,4-dihydrobenzo[1,2,3]triazin-6-yl)benzenesulfonamide]	Ethanol, DMSO	167 to 169		96.27 ± 0.19	32.37 ± 0.15	
Cc1ccc(NS(=O)(=O)c2ccc(-n3nnc4ccccc4c3=O)cc2)cc1C [Compound 4]						29.75 ± 0.14
CCCCn1nnc2ccc(NS(=O)(=O)c3ccc([N+](=O)[O-])cc3)cc2c1=O [Compound 12f, 4-Nitro-N-(4-oxo-3-butyl-3,4-dihydrobenzo[1,2,3]triazin-6 yl)benzenesulfonamide]	Ethanol, DMSO	179 to 181		93.27 ± 0.14	37.75 ± 0.11	
CCCn1nnc2ccc(NS(=O)(=O)c3ccc(Cl)cc3)cc2c1=O [Compound 12c, 4-Chloro-N-(4-oxo-3-propyl-3,4-dihydrobenzo[1,2,3]triazin-6-yl)benzenesulfonamide]	Ethanol, DMSO	169 to 171		78.12 ± 0.16	53.76 ± 0.14	
